Assay results from patent publication US7713937B2, “Synthetic peptide amides and dimeric forms thereof” (Cara Therapeutics, Inc., priority 2006, dated 2010).
pEC50: −log10 of the molar value. Values joined by “and” are separate entries in the source; they are usually repeats but may differ in a detail not shown here. Equal values may be shown once.

Tests used:
[1] = system: albino New Zealand strain rabbits; test: Capsaicin-induced ocular pain, palpebral opening; format: in vivo, rabbit; details: Table VI, 10 mg/ml instilled, 10-30 min. post capsaicin, five animals
[2] = target: T1, mouse kappa opioid receptor (mKOR) (Mus musculus, UniProt P33534); test: cell-based; details: for Emax: read-out: mKOR Efficacy(%)
T1 construct: Stimulation of Endogenous Mouse Kappa-Opioid Receptor in R1.G1 Cells; host or cells: R1.G1 mouse thymoma cells
T1 sequence (P33534 whole entry): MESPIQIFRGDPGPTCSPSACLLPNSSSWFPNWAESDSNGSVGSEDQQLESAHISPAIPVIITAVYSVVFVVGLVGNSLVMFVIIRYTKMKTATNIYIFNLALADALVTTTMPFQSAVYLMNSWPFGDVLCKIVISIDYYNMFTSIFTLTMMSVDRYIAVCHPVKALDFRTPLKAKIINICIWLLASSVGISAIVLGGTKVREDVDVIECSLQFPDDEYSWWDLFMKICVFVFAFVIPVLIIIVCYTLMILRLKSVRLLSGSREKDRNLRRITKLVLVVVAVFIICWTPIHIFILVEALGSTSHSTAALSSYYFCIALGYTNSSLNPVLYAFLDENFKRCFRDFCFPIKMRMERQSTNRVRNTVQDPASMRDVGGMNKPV

[3] = target: T2, human kappa opioid receptor (hKOR) (Homo sapiens, UniProt P41145); test: cell-based; details: for Emax: HEK293, read-out: hKOR Efficacy(%)
T2 construct: expressed in transfected cells; host or cells: HEK-293 cells, transient transfection with Fugene6
T2 sequence (P41145 whole entry): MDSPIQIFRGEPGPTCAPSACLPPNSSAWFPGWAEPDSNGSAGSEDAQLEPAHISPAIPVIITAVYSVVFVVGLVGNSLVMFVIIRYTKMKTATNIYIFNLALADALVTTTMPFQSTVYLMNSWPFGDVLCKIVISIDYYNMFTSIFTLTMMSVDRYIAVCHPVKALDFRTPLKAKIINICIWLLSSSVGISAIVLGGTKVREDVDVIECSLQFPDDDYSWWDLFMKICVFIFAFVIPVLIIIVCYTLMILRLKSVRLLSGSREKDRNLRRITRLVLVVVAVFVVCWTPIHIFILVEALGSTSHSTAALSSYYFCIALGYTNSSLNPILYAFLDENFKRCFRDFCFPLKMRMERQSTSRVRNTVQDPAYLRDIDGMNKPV

[4] = Pharmacokinetics in cynomolgus monkeys, plasma half life; details: male, cynomolgus monkey, iv
CYP2D6 = CYP2D6 (Homo sapiens, UniProt P10635); test: Cytochrome P450 CYP2D6 inhibition in human liver microsomes; details: percent remaining CYP activity, 10 μM test compound, (54) in Expt 1 and Expt 2
Sequence of CYP2D6 (P10635 whole entry): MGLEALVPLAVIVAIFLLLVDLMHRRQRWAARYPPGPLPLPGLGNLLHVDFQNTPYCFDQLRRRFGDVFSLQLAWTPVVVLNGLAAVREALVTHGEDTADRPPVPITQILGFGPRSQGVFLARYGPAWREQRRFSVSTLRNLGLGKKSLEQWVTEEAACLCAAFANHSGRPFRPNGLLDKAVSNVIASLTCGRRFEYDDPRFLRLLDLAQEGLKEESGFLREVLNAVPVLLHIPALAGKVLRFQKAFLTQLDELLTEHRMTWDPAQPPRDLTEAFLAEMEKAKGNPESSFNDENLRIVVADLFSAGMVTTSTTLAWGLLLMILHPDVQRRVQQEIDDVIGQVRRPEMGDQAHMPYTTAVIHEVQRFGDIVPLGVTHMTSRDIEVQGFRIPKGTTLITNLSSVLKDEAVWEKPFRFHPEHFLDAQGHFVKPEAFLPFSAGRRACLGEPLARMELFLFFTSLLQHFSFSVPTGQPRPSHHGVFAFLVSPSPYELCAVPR

[5] = Inhibition of locomotion in mice (locomotion reduction assay, sedation); details: mouse, in vivo, sc, subcutaneous, sedative effect
Experimental: To determine the potential sedative effect of test compounds, the extent of locomotion after the administration of the test compound or vehicle control can be determined and compared with a specialized apparatus designed for this purpose (Opto-Varimex Activity Meter). At the start of each experiment, each mouse was weighed and examined to determine good health. […] The subcutaneous injection was performed in the back of the neck of the mouse, pinched in a “tent” to allow proper access for the syringe needle. After injection, each animal was placed individually in Plexiglas boxes (43 cm×43 cm) inside the Opto-Varimex Activity Meter apparatus. Before the animal was placed in the apparatus, a thin layer of SANI-CHIPS rodent bedding was placed on the bottom of the Plexiglas box to provide a comfortable environment. Each Opto-Varimex Activity Meter apparatus was then turned on and data acquisition begun by the ATM3 Auto-Track System. The data were processed and results expressed in the same way as described for the writhing assay data above.

ICR mice = test: Acetic acid-induced writhing assay in mice; format: in vivo, mouse; details: subcutaneous, ICR mice
CYP2C19 = CYP2C19 (Homo sapiens, UniProt P33261); test: Cytochrome P450 CYP2C19 inhibition in human liver microsomes; details: percent remaining CYP activity, 10 μM test compound, (54) in Expt 1 and Expt 2
Sequence of CYP2C19 (P33261 whole entry): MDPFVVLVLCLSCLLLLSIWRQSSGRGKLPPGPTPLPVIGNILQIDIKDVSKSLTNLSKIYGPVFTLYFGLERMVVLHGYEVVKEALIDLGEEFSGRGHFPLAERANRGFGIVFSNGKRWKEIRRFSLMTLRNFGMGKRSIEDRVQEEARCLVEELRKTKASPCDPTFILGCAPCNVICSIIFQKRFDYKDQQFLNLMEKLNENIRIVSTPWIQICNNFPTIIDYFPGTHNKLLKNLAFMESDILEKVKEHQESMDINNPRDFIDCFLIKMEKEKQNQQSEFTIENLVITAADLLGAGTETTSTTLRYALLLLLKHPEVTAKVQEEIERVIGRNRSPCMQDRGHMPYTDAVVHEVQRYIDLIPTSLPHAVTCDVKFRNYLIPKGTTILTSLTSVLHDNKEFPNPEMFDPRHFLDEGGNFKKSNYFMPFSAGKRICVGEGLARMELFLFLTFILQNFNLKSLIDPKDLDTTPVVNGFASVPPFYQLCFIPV

CYP2C9 = CYP2C9 (Homo sapiens, UniProt P11712); test: Cytochrome P450 CYP2C9 inhibition in human liver microsomes; details: percent remaining CYP activity, 10 μM test compound, (54) in Expt 1 and Expt 2
Sequence of CYP2C9 (P11712 whole entry): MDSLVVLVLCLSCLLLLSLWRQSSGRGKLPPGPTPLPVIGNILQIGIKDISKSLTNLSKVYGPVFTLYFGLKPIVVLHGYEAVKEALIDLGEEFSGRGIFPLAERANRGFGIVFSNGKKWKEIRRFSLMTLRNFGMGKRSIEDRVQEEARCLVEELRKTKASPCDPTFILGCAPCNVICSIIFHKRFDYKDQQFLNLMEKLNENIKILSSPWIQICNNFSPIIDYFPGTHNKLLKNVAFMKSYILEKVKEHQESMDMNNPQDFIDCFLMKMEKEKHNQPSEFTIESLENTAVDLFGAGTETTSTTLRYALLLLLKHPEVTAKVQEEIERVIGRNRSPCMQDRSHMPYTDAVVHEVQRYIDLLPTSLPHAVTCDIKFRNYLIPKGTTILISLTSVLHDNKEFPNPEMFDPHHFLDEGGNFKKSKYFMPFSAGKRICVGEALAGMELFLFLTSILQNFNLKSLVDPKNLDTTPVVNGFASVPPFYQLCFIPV

CYP3A4 = CYP3A4 (Homo sapiens, UniProt P08684); test: Cytochrome P450 CYP3A4 inhibition in human liver microsomes (midazolam); details: percent remaining CYP activity, 10 μM test compound, (54) in Expt 1 and Expt 2
Sequence of CYP3A4 (P08684 whole entry): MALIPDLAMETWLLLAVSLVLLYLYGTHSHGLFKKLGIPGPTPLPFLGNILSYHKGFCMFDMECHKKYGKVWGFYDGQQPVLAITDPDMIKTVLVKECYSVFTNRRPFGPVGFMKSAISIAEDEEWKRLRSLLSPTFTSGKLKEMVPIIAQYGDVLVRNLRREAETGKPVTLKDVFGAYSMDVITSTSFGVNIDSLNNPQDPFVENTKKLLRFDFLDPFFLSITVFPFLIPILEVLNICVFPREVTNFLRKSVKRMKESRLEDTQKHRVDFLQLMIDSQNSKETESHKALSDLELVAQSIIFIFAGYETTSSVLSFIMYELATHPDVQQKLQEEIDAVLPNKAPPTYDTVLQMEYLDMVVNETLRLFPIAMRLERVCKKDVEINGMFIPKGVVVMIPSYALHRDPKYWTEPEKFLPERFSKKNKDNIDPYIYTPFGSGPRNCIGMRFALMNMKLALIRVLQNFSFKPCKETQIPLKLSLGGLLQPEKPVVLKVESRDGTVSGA

CYP1A = test: Cytochrome P450 CYP1A inhibition in human liver microsomes; format: in vitro ADME; details: percent remaining CYP activity, 10 μM test compound, (54) in Expt 1 and Expt 2
Experimental: Inhibition of cytochrome P450 oxidase isozymes CYP1A, CYP2C9, CYP2C19, CYP2D6 and CYP3A4 by synthetic peptide amide compounds of the invention was determined according to the following methods performed by Cerep (Seattle, Wash.):
In the cytochrome P450 CYP1A assay, human liver microsomes (0.2 mg/ml protein) were incubated for 15 minutes at 37° C. with 10 μM test compound, 1 μM ethoxyresorufin, 1.3 mM NADP, 3.3 mM glucose-6-phosphate and 0.4 U/ml glucose-6-phosphate dehydrogenase. In the absence of test compound, the ethoxyresorufin added as substrate is oxidized to resorufin, and in the presence of an inhibitor of the CYP isozyme, the amount of resorufin produced is reduced. Furafylline was used as a reference inhibitor.
In each assay, the percent inhibition of the cytochrome P450 CYP P450 isozyme was determined as one hundred times the ratio of (1-minus the amount of product in the sample in the presence of the test compound) divided by the amount of product in the sample containing untreated isozyme.

## CC(C)C[C@@H](NC(=O)[C@@H](Cc1ccccc1)NC(=O)[C@H](N)Cc1ccccc1)C(=O)N[C@H](CCCCN)C(=O)N1CCC(N2CCC[C@H]2C(=O)O)CC1 [Compound (4), D-Phe-D-Phe-D-Leu-D-Lys-[N-(4-piperidinyl)-L-proline]-OH]
[1]
  Mean (% Control) palpebral opening: 56.7 % Control
[2]
  pEC50: 10.12
  Emax: 94%
[3]
  pEC50: 9.82
  Emax: 92%

## C/N=C(/N)N1CCCN(C(=O)[C@@H](CCCN)NC(=O)[C@@H](CC(C)C)NC(=O)[C@@H](Cc2ccccc2)NC(=O)[C@H](N)Cc2ccccc2)CC1 [Compound (52), D-Phe-D-Phe-D-Leu-D-Orn-[4-(N-methyl)amidino-homopiperazine amide]]
[2]
  pEC50: 10.46
  Emax: 101%
[4]
  half-life: 69 min
[3]
  pEC50: 9.74
  Emax: 96%

## CC(C)C[C@@H](NC(=O)[C@@H](Cc1ccccc1)NC(=O)[C@H](N)Cc1ccccc1)C(=O)N[C@H](CCCN)C(=O)N1CCCN(C2=NCCN2)CC1 [Compound (54), D-Phe-D-Phe-D-Leu-D-Orn-[4-(4,5-dihydro-1H-imidazol-2-yl)homopiperazine amide]]
CYP2D6
  Percent Activity of Cytochrome P450 CYP2D6: 98.4% and 98.2%
[5]
  ED50: 3.17 mg/kg
ICR mice
  ED50 in the acetic acid-induced writhing assay: 74 µg/kg
CYP2C19
  Percent Activity of Cytochrome P450 CYP2C19: 94.1% and 97.8%
[2]
  pEC50: 10.25
  Emax: 99%
CYP2C9
  Percent Activity of Cytochrome P450 CYP2C9: 99.2% and 98.2%
CYP3A4
  Percent Activity of Cytochrome P450 CYP3A4: 94.7% and 95.9%
CYP1A
  Percent Activity of Cytochrome P450 CYP1A: 97.1% and 95.8%
[3]
  pEC50: 9.89
  Emax: 90%
